Converted amounts (≈) assume the structure as drawn. “And” between values parts separate entries of the source, which are not always exact repeats. Identical values can stand only once. Like-named read-outs stand apart in the source and are kept apart here.
Legend:
Assay type in all cases: cell-based
[1] = system: E. coli 257; assay: In vitro antibacterial activity (MIC, Mueller-Hinton broth)
Method in brief: (§1)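 Broth microdilution in Mueller-Hinton broth, drug range 128 to 0.008 μg/ml. Each well received 1.5 μl of a 10^-2 dilution of an overnight culture; sealed trays were incubated overnight at 37° C. MIC = lowest concentration with no visible growth.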

[2] = system: C. diversus CDC 1663-72; assay: In vitro antibacterial activity (MIC); settings: C. diversus CDC 1663-72
Method in brief: as §1

[3] = system: C. freundii 8ASM; assay: In vitro antibacterial activity (MIC); settings: C. freundii 8ASM
Method in brief: as §1

[4] = system: C. freundii CDC6; assay: In vitro antibacterial activity (MIC)
Method in brief: as §1

[5] = system: E. aerogenes 503-478; assay: In vitro antibacterial activity (MIC); settings: E. aerogenes 503-478
Method in brief: as §1

[6] = system: E. aerogenes 83; assay: In vitro antibacterial activity (MIC)
Method in brief: as §1

[7] = system: E. cloacae 214; assay: In vitro antibacterial activity (MIC)
Method in brief: as §1

[8] = system: E. cloacae 24; assay: In vitro antibacterial activity (MIC)
Method in brief: as §1

[9] = system: E. cloacae 5699; assay: In vitro antibacterial activity (MIC); settings: E. cloacae 5699
Method in brief: as §1

[10] = system: E. cloacae 9295; assay: In vitro antibacterial activity (MIC)
Method in brief: as §1

[11] = system: E. cloacae 9570A; assay: In vitro antibacterial activity (MIC)
Method in brief: as §1

[12] = system: E. coli 387-1; assay: In vitro antibacterial activity (MIC); settings: E. coli 387-1
Method in brief: as §1

[13] = system: E. coli 48; assay: In vitro antibacterial activity (MIC); settings: E. coli 48
Method in brief: as §1

[14] = system: E. coli 4; assay: In vitro antibacterial activity (MIC); settings: E. coli 4
Method in brief: as §1

[15] = system: E. coli 5152; assay: In vitro antibacterial activity (MIC)
Method in brief: as §1

[16] = system: K. pneumoniae 35; assay: In vitro antibacterial activity (MIC)
Method in brief: as §1

[17] = system: K. pneumoniae 4964; assay: In vitro antibacterial activity (MIC); settings: K. pneumoniae 4964
Method in brief: as §1

[18] = system: K. pneumoniae 503-994; assay: In vitro antibacterial activity (MIC); settings: K. pneumoniae 503-994
Method in brief: as §1

[19] = system: K. pneumoniae 5096; assay: In vitro antibacterial activity (MIC)
Method in brief: as §1

[20] = system: K. pneumoniae HE7; assay: In vitro antibacterial activity (MIC)
Method in brief: as §1

[21] = system: P. aeruginosa 503-56; assay: In vitro antibacterial activity (MIC)
Method in brief: as §1

[22] = system: P. aeruginosa 5712; assay: In vitro antibacterial activity (MIC)
Method in brief: as §1

[23] = system: P. aeruginosa 6148B; assay: In vitro antibacterial activity (MIC)
Method in brief: as §1

[24] = system: P. aeruginosa 8710; assay: In vitro antibacterial activity (MIC)
Method in brief: as §1

[25] = system: P. aeruginosa B; assay: In vitro antibacterial activity (MIC)
Method in brief: as §1

[26] = system: P. mirabilis 2; assay: In vitro antibacterial activity (MIC)
Method in brief: as §1

[27] = system: P. mirabilis 503-1136; assay: In vitro antibacterial activity (MIC); settings: P. mirabilis 503-1136
Method in brief: as §1

[28] = system: P. vulgaris 101; assay: In vitro antibacterial activity (MIC); settings: P. vulgaris 101
Method in brief: as §1

[29] = system: P. vulgaris ATCC 6380; assay: In vitro antibacterial activity (MIC); settings: P. vulgaris ATCC 6380
Method in brief: as §1

[30] = system: S. aureus Giorgio; assay: In vitro antibacterial activity (MIC)
Method in brief: as §1

[31] = system: S. aureus Smith; assay: In vitro antibacterial activity (MIC)
Method in brief: as §1

[32] = system: S. marcescens 5805; assay: In vitro antibacterial activity (MIC); settings: S. marcescens 5805
Method in brief: as §1

[33] = system: S. marcescens S147; assay: In vitro antibacterial activity (MIC)
Method in brief: as §1

[34] = system: S. marcescens S1; assay: In vitro antibacterial activity (MIC)
Method in brief: as §1

[35] = system: S. marcescens S3; assay: In vitro antibacterial activity (MIC)
Method in brief: as §1

[36] = system: S. marcescens S4; assay: In vitro antibacterial activity (MIC)
Method in brief: as §1

[37] = system: S. marcescens S714; assay: In vitro antibacterial activity (MIC); settings: S. marcescens S714
Method in brief: as §1

[38] = system: S. pneumoniae 6301; assay: In vitro antibacterial activity (MIC)
Method in brief: as §1

[39] = system: S. pneumoniae 6302; assay: In vitro antibacterial activity (MIC)
Method in brief: as §1

[40] = system: S. pneumoniae SC; assay: In vitro antibacterial activity (MIC)
Method in brief: as §1

[41] = system: S. pyogenes 4; assay: In vitro antibacterial activity (MIC)
Method in brief: as §1

[42] = system: S. pyogenes 503-782; assay: In vitro antibacterial activity (MIC)
Method in brief: as §1

[43] = system: S. typhi P58A; assay: In vitro antibacterial activity (MIC)
Method in brief: as §1

[44] = system: P. aeruginosa POW 151; assay: In vitro antibacterial activity (MIC); settings: Pseudomonas aeruginosa, POW151
Method in brief: as §1

[45] = Pseudomonas aeruginosa, read-out: MIC

Work on `CC1(C)S[C@@H]2[C@H](N=CN3CCCC(CCn4ccnc4)CC3)C(=O)N2[C@H]1C(=O)O.Cl.O` (single isomer, unassigned) [D] yielded an MIC ([1]; E. coli 257) of 0.125 µg/mL, an MIC [2] of 0.125 µg/mL and an MIC [3] of 0.062 µg/mL. It also gave an MIC ([4]; C. freundii CDC6) of 0.25 µg/mL, an MIC [5] of 8 µg/mL and an MIC ([6]; E. aerogenes 83) of 16 µg/mL. For the same compound, the MIC ([7]; E. cloacae 214) was 0.25 µg/mL, the MIC ([8]; E. cloacae 24) was 0.5 µg/mL and the MIC [9] was 0.5 µg/mL. The MIC ([10]; E. cloacae 9295) was 0.5 µg/mL, the MIC [11] was 0.5 µg/mL and the MIC [12] was 0.125 µg/mL. For the same compound, the MIC [13] was 0.125 µg/mL, the MIC [14] was 0.125 µg/mL and the MIC ([15]; E. coli 5152) was 16 µg/mL. It also gave an MIC ([16]; K. pneumoniae 35) of 0.25 µg/mL, an MIC [17] of 1 µg/mL and an MIC [18] of 0.125 µg/mL. The MIC ([19]; K. pneumoniae 5096) was > 128 µg/mL, the MIC ([20]; K. pneumoniae HE7) was > 128 µg/mL and the MIC ([21]; P. aeruginosa 503-56) was > 128 µg/mL. For the same compound, the MIC ([22]; P. aeruginosa 5712) was > 128 µg/mL, the MIC [23] was > 128 µg/mL and the MIC ([24]; P. aeruginosa 8710) was > 128 µg/mL. For the same compound, the MIC [25] was 0.25 µg/mL, the MIC ([26]; P. mirabilis 2) was 0.5 µg/mL and the MIC [27] was 16 µg/mL. It also gave an MIC [28] of 32 µg/mL, an MIC [29] of 0.125 µg/mL and an MIC ([30]; S. aureus Giorgio) of 16 µg/mL. For the same compound, the MIC ([31]; S. aureus Smith) was 32 µg/mL, the MIC [32] was 2 µg/mL and the MIC ([33]; S. marcescens S147) was 0.125 µg/mL. It also gave an MIC ([34]; S. marcescens S1) of 0.5 µg/mL, an MIC ([35]; S. marcescens S3) of 0.5 µg/mL and an MIC ([36]; S. marcescens S4) of 1 µg/mL. For the same compound, the MIC [37] was 1 µg/mL, the MIC ([38]; S. pneumoniae 6301) was 4 µg/mL and the MIC ([39]; S. pneumoniae 6302) was 8 µg/mL. For the same compound, the MIC [40] was 4 µg/mL, the MIC ([41]; S. pyogenes 4) was 1 µg/mL and the MIC ([42]; S. pyogenes 503-782) was > 128 µg/mL. The MIC [43] was 0.125 µg/mL.
For `CC1(C)S[C@@H]2[C@H](/N=C/N3CCCCCC3)C(=O)N2[C@H]1C(=O)O` [Amdinocillin, amdinocillin, reference compound], the MIC ([1]; Escherichia coli, 257) was 0.125 µg/mL (≈ 0.384 µM), the MIC ([4]; Citrobacter freundii, CDC6) was 0.125 µg/mL (≈ 0.384 µM) and the MIC ([6]; E. aerogenes 83) was 4 µg/mL (≈ 12.3 µM). The MIC ([6]; Klebsiella aerogenes, 83, E. aerogenes 83, read-out: MIC) was 8 µg/mL (≈ 24.6 µM), the MIC ([7]; Enterobacter cloacae, 214) was 0.125 µg/mL (≈ 0.384 µM) and the MIC ([8]; Enterobacter cloacae, 24) was 0.125 µg/mL (≈ 0.384 µM). The MIC ([10]; Enterobacter cloacae, 9295) was 0.125 µg/mL (≈ 0.384 µM), the MIC ([11]; Enterobacter cloacae, 9570A) was 0.125 µg/mL (≈ 0.384 µM) and the MIC ([11]; Enterobacter cloacae, read-out: MIC) was 0.062 µg/mL (≈ 0.191 µM). For the same compound, the MIC ([15]; E. coli 5152) was 16 µg/mL (≈ 49.2 µM), the MIC ([15]; Escherichia coli, 5152, E. coli 5152, read-out: MIC) was 8 µg/mL (≈ 24.6 µM) and the MIC ([16]; Klebsiella pneumoniae, 35, K. pneumoniae 35) was 0.125 µg/mL (≈ 0.384 µM). For the same compound, the MIC ([16]; Klebsiella pneumoniae, K. pneumoniae 35, read-out: MIC) was 0.062 µg/mL (≈ 0.191 µM), the MIC ([19]; Klebsiella pneumoniae, 5096, K. pneumoniae 5096) was 128 µg/mL (≈ 393 µM) and the MIC ([19]; Klebsiella pneumoniae, K. pneumoniae 5096, read-out: MIC) was 32 µg/mL (≈ 98.3 µM). For the same compound, the MIC ([20]; Klebsiella pneumoniae, HE7, K. pneumoniae HE7) was > 128 µg/mL, the MIC ([20]; Klebsiella pneumoniae, K. pneumoniae HE7, read-out: MIC) was 64 µg/mL (≈ 197 µM) and the MIC ([21]; P. aeruginosa 503-56) was 128 µg/mL (≈ 393 µM). For the same compound, the MIC ([21]; Pseudomonas aeruginosa, 50356, P. aeruginosa 503-56) was > 128 µg/mL, the MIC ([22]; Pseudomonas aeruginosa, 5712) was > 128 µg/mL and the MIC [23] was 128 µg/mL (≈ 393 µM). For the same compound, the MIC ([23]; Pseudomonas aeruginosa, 6148B) was > 128 µg/mL, the MIC [23, 45] was 64 µg/mL (≈ 197 µM) and the MIC ([24]; P. aeruginosa 8710) was 128 µg/mL (≈ 393 µM). The MIC ([24]; Pseudomonas aeruginosa, 8710, P. aeruginosa 8710) was > 128 µg/mL, the MIC [25, 45] was 0.062 µg/mL (≈ 0.191 µM) and the MIC [44] was > 128 µg/mL. The MIC ([26]; Proteus mirabilis, 2) was 0.125 µg/mL (≈ 0.384 µM), the MIC ([30]; Staphylococcus aureus) was 32 µg/mL (≈ 98.3 µM) and the MIC ([31]; S. aureus Smith) was 8 µg/mL and 16 µg/mL. The MIC ([31]; Staphylococcus aureus) was 16 µg/mL (≈ 49.2 µM), the MIC ([33]; Serratia marcescens, S147, S. marcescens S147) was 0.125 µg/mL (≈ 0.384 µM) and the MIC ([33]; Serratia marcescens, S. marcescens S147, read-out: MIC) was 0.062 µg/mL (≈ 0.191 µM). The MIC ([34]; Serratia marcescens, S1) was 0.125 µg/mL (≈ 0.384 µM), the MIC ([35]; Serratia marcescens, S3, S. marcescens S3) was 0.125 µg/mL (≈ 0.384 µM) and the MIC ([35]; Serratia marcescens, S. marcescens S3, read-out: MIC) was 0.062 µg/mL (≈ 0.191 µM). It also gave an MIC ([36]; S. marcescens S4) of 0.5 µg/mL (≈ 1.54 µM), an MIC ([36]; Serratia marcescens, S4, S. marcescens S4, read-out: MIC) of 1 µg/mL (≈ 3.07 µM) and an MIC ([38]; S. pneumoniae 6301) of 1 µg/mL (≈ 3.07 µM). For the same compound, the MIC ([38]; Streptococcus pneumoniae, 6301, S. pneumoniae 6301, read-out: MIC) was 2 µg/mL (≈ 6.15 µM), the MIC ([39]; S. pneumoniae 6302) was 2 µg/mL (≈ 6.15 µM) and the MIC ([39]; Streptococcus pneumoniae, 6302, S. pneumoniae 6302, read-out: MIC) was 4 µg/mL (≈ 12.3 µM). For the same compound, the MIC [40] was 1 µg/mL (≈ 3.07 µM), the MIC ([40]; Streptococcus pneumoniae, read-out: MIC) was 2 µg/mL (≈ 6.15 µM) and the MIC ([41]; S. pyogenes 4) was 2 µg/mL (≈ 6.15 µM). The MIC ([41]; Streptococcus pyogenes, 4, S. pyogenes 4, read-out: MIC) was 1 µg/mL (≈ 3.07 µM), the MIC ([42]; Streptococcus pyogenes, 503782, S. pyogenes 503-782) was > 128 µg/mL and the MIC ([42]; Streptococcus pyogenes, 503782, S. pyogenes 503-782, read-out: MIC) was 1 µg/mL (≈ 3.07 µM).

Source: patent US4605744A, “Imidazole derivatives” (Hoffmann-La Roche Inc., priority 1985, dated 1986)
